Laboratory results from ChEMBL document CHEMBL4840335, “Rational Design and Development of Novel CDK9 Inhibitors for the Treatment of Acute Myeloid Leukemia” (J Med Chem, 2021).
Active and inactive are the calls of the source. The rule behind the calls is not given here.

Key:
[1] = molecular target: Serine/threonine-protein kinase Chk1 (Homo sapiens, UniProt O14757); experiment: Inhibition of CHK1 (unknown origin)
MV4-11 [2] = experiment: Induction of apoptosis in human MV4-11 cells assessed as late apoptotic cells at 50 nM measured after 24 hrs by annexinV-FITC/propidium iodide staining based flow cytometry (reference value: 3.04 %); format: functional
[3] = molecular target: Cyclin-dependent kinase 9 (Homo sapiens) (UniProt P50750); experiment: Inhibition of CDK9 in human MV4-11 cells assessed as reduction in RNAP2 phosphorylation at ser2 residues at 1 to 10 uM after 12 hrs by Western blot analysis; format: cell-based; conditions: dose 1-10 µM
Ephrin type-A receptor 2 = Ephrin type-A receptor 2 (Homo sapiens, UniProt P29317); experiment: Inhibition of EPHA2 (unknown origin)
MV4-11 [4] = experiment: Induction of apoptosis in human MV4-11 cells assessed as early apoptotic cells at 50 nM measured after 24 hrs by annexinV-FITC/propidium iodide staining based flow cytometry (reference value: 0.79 %); format: functional
[5] = Half life in ICR mouse at 20 mg/kg, po measured up to 24 hrs; format: ADME, organism-based; conditions: in vivo
[6] = molecular target: Vascular endothelial growth factor receptor 2 (Homo sapiens, UniProt P35968); experiment: Inhibition of KDR (unknown origin)
Aurora kinase A = Aurora kinase A (Homo sapiens, UniProt O14965); experiment: Inhibition of AURKA (unknown origin)
[7] = Observed clearance in ICR mouse at 2 mg/kg, iv measured up to 24 hrs; format: ADME, organism-based; conditions: in vivo
JeKo-1 = experiment: Antiproliferative activity against human JeKo-1 cells assessed as reduction in cell proliferation measured after 3 to 7 days by MTS assay; format: functional, cell-based
[8] = Observed AUC infinity in ICR mouse at 20 mg/kg, po measured up to 24 hrs; format: ADME, organism-based; parameters: route oral, dose 20 mg/kg, time <=24; conditions: in vivo
[9] = Observed AUC infinity in ICR mouse at 2 mg/kg, iv measured up to 24 hrs; format: ADME, organism-based; parameters: route intravenous, dose 2 mg/kg, time <=24; conditions: in vivo
MV4-11 [10] = experiment: Antitumor activity against human MV4-11 cells xenografted in Nu/Nu mouse assessed as tumor growth suppression by measuring T/C ratio at 7.5 mg/kg, po administered for 21 consecutive days by digital caliper method relative to control; format: functional; conditions: time 21 day
[11] = molecular target: Receptor tyrosine-protein kinase erbB-2 (Homo sapiens, UniProt P04626); experiment: Inhibition of ErbB2 (unknown origin)
[12] = Cmax in ICR mouse at 20 mg/kg, po measured up to 24 hrs; format: ADME, organism-based; parameters: route oral, dose 20 mg/kg, time <=24; conditions: in vivo
HL-60 = experiment: Antiproliferative activity against human HL-60 cells assessed as reduction in cell proliferation measured after 3 to 7 days by MTS assay; format: functional, cell-based
[13] = MRT in ICR mouse at 20 mg/kg, po measured up to 24 hrs; format: ADME, organism-based; conditions: in vivo
[14] = molecular target: Tyrosine-protein kinase ABL1 (Homo sapiens, UniProt P00519); experiment: Inhibition of ABL (unknown origin)
MV4-11 [15] = experiment: Induction of apoptosis in human MV4-11 cells assessed as activation of caspase-3 at 5 to 50 nM measured after 24 hrs by Western blot analysis; format: functional, cell-based; conditions: dose 5-50 nM
MV4-11 [16] = experiment: Induction of apoptosis in human MV4-11 cells assessed as activation of cleaved PARP at 5 to 50 nM measured after 24 hrs by Western blot analysis; format: functional, cell-based; conditions: dose 5-50 nM
Kasumi 1 = experiment: Antiproliferative activity against human Kasumi 1 cells assessed as reduction in cell proliferation measured after 3 to 7 days by MTS assay; format: functional, cell-based
[17] = molecular target: Cyclin-dependent kinase 6 (Homo sapiens, UniProt Q00534); experiment: Inhibition of CDK6 (unknown origin)
MV4-11 [18] = experiment: Induction of apoptosis in human MV4-11 cells assessed as necrotic cells at 10 nM measured after 24 hrs by annexinV-FITC/propidium iodide staining based flow cytometry (reference value: 1.03 %); format: functional
MV4-11 [19] = experiment: Antitumor activity against human MV4-11 cells xenografted in Nu/Nu mouse assessed as relative tumor volume at 7.5 mg/kg, po administered for 21 consecutive days by digital caliper method; format: functional; conditions: time 22 day
[20] = AUClast in ICR mouse at 20 mg/kg, po measured up to 24 hrs; format: ADME, organism-based; parameters: route oral, dose 20 mg/kg, time <=24; conditions: in vivo
[21] = molecular target: Serine/threonine-protein kinase Chk2 (Homo sapiens, UniProt O96017); experiment: Inhibition of CHK2 (unknown origin)
MV4-11 [22] = experiment: Induction of apoptosis in human MV4-11 cells assessed as live cells at 10 nM measured after 24 hrs by annexinV-FITC/propidium iodide staining based flow cytometry (reference value: 95.14 %); format: functional
MV4-11 [23] = experiment: Induction of apoptosis in human MV4-11 cells assessed as necrotic cells at 50 nM measured after 24 hrs by annexinV-FITC/propidium iodide staining based flow cytometry (reference value: 1.03 %); format: functional
MV4-11 [24] = experiment: Induction of apoptosis in human MV4-11 cells assessed as live cells at 50 nM measured after 24 hrs by annexinV-FITC/propidium iodide staining based flow cytometry (reference value: 95.14 %); format: functional
[25] = AUClast in ICR mouse at 2 mg/kg, iv measured up to 24 hrs; format: ADME, organism-based; parameters: route intravenous, dose 2 mg/kg, time <=24; conditions: in vivo
[26] = molecular target: Serine/threonine-protein kinase 17B (Homo sapiens, UniProt O94768); experiment: Inhibition of DRAK2 (unknown origin)
MV4-11 [27] = experiment: Antiproliferative activity against human MV4-11 cells assessed as reduction in cell proliferation measured after 3 to 7 days by MTS assay; format: functional, cell-based
[28] = molecular target: Fibroblast growth factor receptor 1 (Homo sapiens, UniProt P11362); experiment: Inhibition of FGFR1 (unknown origin)

Chain of Aurora kinase A (O14965 whole entry): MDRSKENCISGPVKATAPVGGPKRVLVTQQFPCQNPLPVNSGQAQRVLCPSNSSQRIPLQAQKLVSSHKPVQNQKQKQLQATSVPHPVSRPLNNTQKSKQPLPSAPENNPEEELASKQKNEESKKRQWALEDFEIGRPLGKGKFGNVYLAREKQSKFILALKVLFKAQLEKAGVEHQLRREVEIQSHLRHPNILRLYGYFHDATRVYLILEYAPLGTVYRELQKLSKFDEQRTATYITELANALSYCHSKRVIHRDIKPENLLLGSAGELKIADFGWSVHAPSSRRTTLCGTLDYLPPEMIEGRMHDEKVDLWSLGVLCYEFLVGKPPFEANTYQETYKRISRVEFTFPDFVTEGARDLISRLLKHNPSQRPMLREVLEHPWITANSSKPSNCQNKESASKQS
Chain of Receptor tyrosine-protein kinase erbB-2 (P04626 whole entry): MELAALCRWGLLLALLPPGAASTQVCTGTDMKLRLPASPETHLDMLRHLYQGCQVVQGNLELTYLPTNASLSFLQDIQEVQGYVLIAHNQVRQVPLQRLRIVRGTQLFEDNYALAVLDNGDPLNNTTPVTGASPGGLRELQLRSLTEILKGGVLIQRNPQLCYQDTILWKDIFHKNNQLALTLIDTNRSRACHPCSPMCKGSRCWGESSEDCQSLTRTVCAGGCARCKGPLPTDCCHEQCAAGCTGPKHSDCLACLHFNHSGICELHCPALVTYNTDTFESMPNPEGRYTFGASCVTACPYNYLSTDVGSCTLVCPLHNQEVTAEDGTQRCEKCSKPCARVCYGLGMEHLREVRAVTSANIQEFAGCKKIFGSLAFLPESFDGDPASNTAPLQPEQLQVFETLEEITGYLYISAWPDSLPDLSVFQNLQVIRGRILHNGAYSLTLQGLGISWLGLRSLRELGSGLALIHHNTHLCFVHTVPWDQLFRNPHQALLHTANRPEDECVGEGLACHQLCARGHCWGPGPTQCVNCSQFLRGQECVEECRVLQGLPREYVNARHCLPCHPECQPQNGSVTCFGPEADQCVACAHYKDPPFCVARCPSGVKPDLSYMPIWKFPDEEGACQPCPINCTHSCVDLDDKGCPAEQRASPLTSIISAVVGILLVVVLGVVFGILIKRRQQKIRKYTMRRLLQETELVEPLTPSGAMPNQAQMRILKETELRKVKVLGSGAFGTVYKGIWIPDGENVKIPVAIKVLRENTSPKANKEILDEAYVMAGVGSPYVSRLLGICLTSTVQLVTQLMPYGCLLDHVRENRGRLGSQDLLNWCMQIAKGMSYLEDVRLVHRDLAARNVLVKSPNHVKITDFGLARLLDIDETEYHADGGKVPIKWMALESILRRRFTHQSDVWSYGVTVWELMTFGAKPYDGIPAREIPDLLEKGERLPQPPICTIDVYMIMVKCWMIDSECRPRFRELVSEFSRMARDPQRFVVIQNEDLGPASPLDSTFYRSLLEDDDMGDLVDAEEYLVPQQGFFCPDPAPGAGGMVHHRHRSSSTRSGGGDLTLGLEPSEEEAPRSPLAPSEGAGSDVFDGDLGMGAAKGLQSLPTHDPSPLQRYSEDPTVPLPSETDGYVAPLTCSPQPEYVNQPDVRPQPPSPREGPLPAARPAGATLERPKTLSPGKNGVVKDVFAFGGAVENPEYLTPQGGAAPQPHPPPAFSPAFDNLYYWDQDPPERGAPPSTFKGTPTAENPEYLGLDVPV
Chain of Serine/threonine-protein kinase Chk2 (O96017 whole entry): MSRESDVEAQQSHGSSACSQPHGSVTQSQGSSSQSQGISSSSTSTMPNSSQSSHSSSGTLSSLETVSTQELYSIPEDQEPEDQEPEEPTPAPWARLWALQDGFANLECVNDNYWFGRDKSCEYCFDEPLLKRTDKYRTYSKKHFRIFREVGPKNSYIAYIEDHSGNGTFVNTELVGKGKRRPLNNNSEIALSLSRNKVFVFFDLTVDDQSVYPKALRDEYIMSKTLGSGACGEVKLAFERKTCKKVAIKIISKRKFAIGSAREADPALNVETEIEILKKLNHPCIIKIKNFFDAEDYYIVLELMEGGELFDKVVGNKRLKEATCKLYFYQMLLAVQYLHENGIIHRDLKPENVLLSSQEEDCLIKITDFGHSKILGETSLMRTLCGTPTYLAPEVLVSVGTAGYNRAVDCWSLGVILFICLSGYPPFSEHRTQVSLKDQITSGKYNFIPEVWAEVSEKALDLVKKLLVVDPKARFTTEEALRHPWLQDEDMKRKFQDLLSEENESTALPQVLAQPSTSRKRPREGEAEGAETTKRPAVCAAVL
Chain of Cyclin-dependent kinase 9 (Homo sapiens) (P50750 whole entry): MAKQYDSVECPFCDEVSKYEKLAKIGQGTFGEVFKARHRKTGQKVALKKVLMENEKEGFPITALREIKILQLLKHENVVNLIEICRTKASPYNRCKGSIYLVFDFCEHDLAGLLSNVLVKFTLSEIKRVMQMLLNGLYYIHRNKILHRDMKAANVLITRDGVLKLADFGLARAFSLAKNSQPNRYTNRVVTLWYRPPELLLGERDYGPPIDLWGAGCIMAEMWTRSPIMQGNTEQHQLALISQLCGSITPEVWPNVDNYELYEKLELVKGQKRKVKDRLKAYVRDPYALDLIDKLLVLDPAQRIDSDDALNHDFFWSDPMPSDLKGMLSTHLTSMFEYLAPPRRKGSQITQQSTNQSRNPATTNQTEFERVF
Chain of Serine/threonine-protein kinase 17B (O94768 whole entry): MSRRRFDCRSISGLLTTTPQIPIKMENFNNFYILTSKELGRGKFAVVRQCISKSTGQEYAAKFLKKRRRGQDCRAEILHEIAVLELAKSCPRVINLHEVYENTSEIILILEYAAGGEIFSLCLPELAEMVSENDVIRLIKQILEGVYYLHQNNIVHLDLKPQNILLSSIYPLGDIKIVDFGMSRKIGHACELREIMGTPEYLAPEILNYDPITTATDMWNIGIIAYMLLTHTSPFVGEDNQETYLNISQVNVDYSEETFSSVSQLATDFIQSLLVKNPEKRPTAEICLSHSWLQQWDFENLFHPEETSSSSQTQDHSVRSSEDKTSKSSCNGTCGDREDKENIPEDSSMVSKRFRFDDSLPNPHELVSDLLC
Chain of Vascular endothelial growth factor receptor 2 (P35968 whole entry): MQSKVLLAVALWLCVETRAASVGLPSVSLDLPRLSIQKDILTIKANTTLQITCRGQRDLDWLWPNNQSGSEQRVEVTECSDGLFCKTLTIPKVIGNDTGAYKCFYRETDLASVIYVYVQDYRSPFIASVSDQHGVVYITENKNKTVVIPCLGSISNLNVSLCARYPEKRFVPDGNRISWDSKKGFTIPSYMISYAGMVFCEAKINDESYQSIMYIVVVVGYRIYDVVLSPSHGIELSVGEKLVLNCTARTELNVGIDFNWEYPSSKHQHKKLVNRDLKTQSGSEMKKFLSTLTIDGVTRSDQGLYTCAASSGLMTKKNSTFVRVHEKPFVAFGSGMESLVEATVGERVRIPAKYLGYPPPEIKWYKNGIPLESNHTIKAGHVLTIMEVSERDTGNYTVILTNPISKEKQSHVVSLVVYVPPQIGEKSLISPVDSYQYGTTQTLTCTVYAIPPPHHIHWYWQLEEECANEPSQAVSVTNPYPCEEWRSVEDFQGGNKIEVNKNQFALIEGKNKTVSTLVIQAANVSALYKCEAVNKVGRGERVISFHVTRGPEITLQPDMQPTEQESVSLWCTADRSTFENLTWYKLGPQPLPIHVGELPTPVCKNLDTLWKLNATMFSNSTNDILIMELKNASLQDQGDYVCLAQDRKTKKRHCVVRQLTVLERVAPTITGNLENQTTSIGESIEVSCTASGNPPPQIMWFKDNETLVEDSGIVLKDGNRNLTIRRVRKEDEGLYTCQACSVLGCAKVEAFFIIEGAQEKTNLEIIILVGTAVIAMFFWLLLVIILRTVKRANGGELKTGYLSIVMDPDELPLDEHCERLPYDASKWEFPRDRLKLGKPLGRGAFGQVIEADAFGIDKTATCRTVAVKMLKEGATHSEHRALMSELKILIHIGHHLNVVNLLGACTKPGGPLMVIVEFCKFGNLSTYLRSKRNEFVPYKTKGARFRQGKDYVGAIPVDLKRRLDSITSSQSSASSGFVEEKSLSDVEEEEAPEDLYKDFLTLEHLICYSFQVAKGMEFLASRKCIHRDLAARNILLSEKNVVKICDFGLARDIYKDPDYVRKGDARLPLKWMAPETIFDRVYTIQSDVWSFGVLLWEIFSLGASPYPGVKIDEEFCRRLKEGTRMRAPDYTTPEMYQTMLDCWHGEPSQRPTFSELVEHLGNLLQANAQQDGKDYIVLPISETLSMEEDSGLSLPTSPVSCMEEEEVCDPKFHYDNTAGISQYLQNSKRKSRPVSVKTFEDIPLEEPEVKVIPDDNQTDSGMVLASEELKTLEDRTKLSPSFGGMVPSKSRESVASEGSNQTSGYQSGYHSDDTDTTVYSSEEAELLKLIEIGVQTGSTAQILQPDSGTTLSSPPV
Chain of Serine/threonine-protein kinase Chk1 (O14757 whole entry): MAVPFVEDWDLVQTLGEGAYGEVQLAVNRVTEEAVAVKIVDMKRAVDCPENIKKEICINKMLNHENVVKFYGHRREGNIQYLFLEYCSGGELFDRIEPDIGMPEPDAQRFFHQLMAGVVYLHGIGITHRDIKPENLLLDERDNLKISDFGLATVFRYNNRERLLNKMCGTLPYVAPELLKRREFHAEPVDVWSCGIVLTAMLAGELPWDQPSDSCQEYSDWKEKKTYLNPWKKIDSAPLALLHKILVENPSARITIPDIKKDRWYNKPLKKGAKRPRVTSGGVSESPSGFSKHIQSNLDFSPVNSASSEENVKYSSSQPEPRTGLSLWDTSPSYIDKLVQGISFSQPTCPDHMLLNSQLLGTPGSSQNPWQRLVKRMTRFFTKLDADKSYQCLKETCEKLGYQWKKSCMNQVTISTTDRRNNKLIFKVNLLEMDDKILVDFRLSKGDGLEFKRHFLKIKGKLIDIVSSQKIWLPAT

Cc1n[nH]c2ccc(-c3cc(N[C@@H](CO)c4ccccc4)cnc3Cl)cc12
IC50 [1]: > 1000 nM | Activity (MV4-11 [2]): 16.89% | inhibition [3]: inactive | IC50 (Ephrin type-A receptor 2): > 1000 nM | Activity (MV4-11 [4]): 3.23% | half-life [5]: 8.02 h | IC50 [6]: > 1000 nM | IC50 (Aurora kinase A): > 1000 nM | clearance [7]: 60 mL/min/kg | IC50 (JeKo-1): 46 nM | AUC(0-inf) [8]: 1880 ng·h/mL | AUC(0-inf) [9]: 558 ng·h/mL | T/C (MV4-11 [10]): 27.8% | IC50 [11]: > 1000 nM | Cmax [12]: 1570 ng/mL | IC50 (HL-60): 44 nM | MRT [13]: 5.99 h | IC50 [14]: > 1000 nM | Activity (MV4-11 [15]): Active | Activity (MV4-11 [16]): Active | IC50 (Kasumi 1): 21 nM | IC50 [17]: > 1000 nM | Activity (MV4-11 [18]): 0.84% | Activity (MV4-11 [19]): 2.86 | AUC(0-t) at 24 h [20]: 1760 ng·h/mL | IC50 [21]: > 1000 nM | Activity (MV4-11 [22]): 94.45% | Activity (MV4-11 [23]): 3.59% | Activity (MV4-11 [24]): 76.29% | AUC(0-t) at 24 h [25]: 553 ng·h/mL | IC50 [26]: > 1000 nM | IC50 (MV4-11 [27]): 1.6 nM | IC50 [28]: > 1000 nM
